Laboratory results as given in patent EP0437336B1, “Biophosphoryl hydrazines and their use as pesticides” (priority 1990, dated 1991).
Values after ≈ are worked out from the molar mass of the structure shown. Where two headings read alike, the source gives them in different places.

Tests used:
Two-Spotted Spider Mite = assay: Biological Method D: Foliar Insecticidal Activity Test, mite test; assay type: in vivo, Tetranychus urticae; design: key to LC50 TSM: I = inactive at concentration listed; settings: Two-Spotted Spider Mite; for LC50: Tetranychus urticae, foliar, compounds a-r, read-out: LC 50 TSM
Boll Weevil [1] = assay: Biological Method D: Foliar Insecticidal Activity Test, boll weevil test; assay type: in vivo, Anthonomous grandis; settings: Boll Weevil, compounds a-r
Green Peach Aphid [2] = assay: Biological Method D: Foliar Insecticidal Activity Test, aphid test; assay type: in vivo, Myzus persicae; design: key: I = inactive at concentration tested; settings: compounds a-r
Protocol: (§1) Biological Method D: Foliar Insecticidal Activity Test
(§2) In evaluating the foliar insecticidal activity of the compounds of this invention against insects and mites, the following test procedures were employed.
(§3) Not all compounds were tested at each of the several concentrations stated above. Test concentrations of a compound were selected as those most likely to differentiate dose response of a particular compound toward a particular test insect.
(§4) Initial evaluations were made on one or more of the following pests:
For the aphid test, infested broccoli (Brassica oleracea italica var. DiCicco) leaves containing about 50 aphids were placed in a Petri dish lid on a moistened piece of cotton. The leaves were then sprayed to thorough wetness with the test solution using a rotating turntable, held for twenty-four hours and then the percentage killed was determined.
(§5) The mortalities obtained in this manner were plotted on logarithmic probability paper.
(§6) The rotating turntable consists of a fixed, continuously operating spray nozzle under which targets are rotated at a fixed speed and distance. If the target is a Petri dish (such as for the bean beetle, armyworm, mite, or aphid tests), the distance from the nozzle is 38.1 cm (15 inches). If the target is a Mason jar (such as for the boll weevil test), the distance from the nozzle is 17.8 cm (7 inches). The nozzle is located 8 inches from the rotating shaft. The targets on individual platforms revolve around the shaft at 1 revolution per 20 seconds but only a brief portion of this time occurs in the spray path. Targets pass only once under the nozzle and then are removed to drying hoods.
(§7) The nozzle used is a 1/4 JCO Spraying Systems (Wheaton, Illinois) air atomizing nozzle equipped with a No. 2850 fluid cap and a No. 70 air cap. At the 68.95 x 10³ Pa gauge (10 psig) air pressure used and with liquid siphon feed, 1.89 ℓ/hr [0.5 GPH (gallons per hour)] are delivered in a round spray pattern with a 21 degree spray angle. Targets are misted with spray droplets to the point that the droplets coalesce to form a uniform thin film insufficient to drown test organisms.

Southern Armyworm [3] = assay: Biological Method D: Foliar Insecticidal Activity Test, Southern Armyworm test; assay type: in vivo, Spodoptera eridania; design: key: I = inactive at concentration tested; settings: compounds a-r
Protocol: as §1, §2, §3, §4
For the Mexican Bean Beetle and Southern armyworm tests, individual lima bean (Phaseolus limeniss var. Woods' Prolific) leaves were placed on moistened pieces of filter paper in Petri dishes. The leaves were then sprayed with the test solution using a rotating turntable and allowed to dry. The dishes were then infested with 10 third instar larvae of either the Mexican Been Beetle or the Southern Armyworm. The dishes were then covered. Percent mortality was determined for each species and spray concentration at 48 and 96 hours after treatment.
as §5, §6, §7

Boll Weevil [4] = assay: Biological Method D: Foliar Insecticidal Activity Test, boll weevil test; assay type: in vivo, Anthonomous grandis; design: key: I = inactive at concentration tested; settings: compounds a-r
Protocol: as §1, §2, §3, §4
For the boll weevil test, 10 adult weevils were placed in a 0.24 ℓ (0.5 pint) glass Mason jar containing a small cube of apple. The weevils were confined to the jar by fiberglass screen mesh secured by a screw-type rim cap. The jars were then sprayed with the test solution using a rotating turntable; directing the spray through the mesh into the jar. The percentage killed was determined after forty-eight and ninety six hours.
as §5, §6, §7

Mexican Bean Beetle = assay: Biological Method D: Foliar Insecticidal Activity Test, Mexican Bean Beetle test; assay type: in vivo, Epilachna varivestis; design: key to LC50 BB 96 hrs / LC50 BB 48 hrs.: I = inactive at concentration listed; settings: Mexican Bean Beetle; for LC50: Epilachna varivestis
[5] = tested on: Japanese beetle (Popillia japonica ) eggs; assay: Biological Method E: Turf Grub Insecticidal Activity Test; assay type: in vivo; settings: soil incorporation
Protocol: Biological Method E: Turf Grub Insecticidal Activity Test
These will give soil concentrations of […] (1.6, 0.8, 0.4, and 0.2 pounds per acre), respectively.
Ten milliliters of test solution were incorporated into 250 ml of moistened soil (clay loam, 90% : humus soil, 10%) and allowed to air in an uncapped pint jar for about 2 hours. After airing, a small amount of seed mixture containing equal parts of redtop (Agrostis alba ) and white clover (Trifolium repens ) was incorporated into the soil. Two 50 ml quantities of soil were placed into dep 88.72 cm³ (3 ounce) ointment tin cans.
Ten Japanese beetle (Popillia japonica ) eggs were placed into the soil in each can and the can capped with its tined lid. Treatments were held for 23 days at 30 degrees Centigrade.
Upon termination, the soil was sieved to isloate the grubs. The percent mortality was determined for each concentration.

Green Peach Aphid [6] = assay: Biological Method D: Foliar Insecticidal Activity Test, aphid test; assay type: in vivo, Myzus persicae; design: key: I = inactive at concentration listed
Southern Armyworm [7] = assay: Biological Method D: Foliar Insecticidal Activity Test, Southern Armyworm test; assay type: in vivo, Spodoptera eridania; design: key: I = inactive at concentration listed
Boll Weevil [8] = assay: Biological Method D: Foliar Insecticidal Activity Test, boll weevil test; assay type: in vivo, Anthonomous grandis; design: key: I = inactive at concentration listed
[9] = tested on: southern corn rootworm, Diabrotica undecimpunctata howardi; assay: Biological Method A: Corn Rootworm Screening Test (treated non-aggressive soil); settings: soil concentration giving 90% mortality, 10 days at 27°C
[10] = tested on: southern corn rootworm, Diabrotica undecimpunctata howardi; settings: at-planting soil application
Green Peach Aphid [11] = assay: Biological Method D: Foliar Insecticidal Activity Test, aphid test; assay type: in vivo, Myzus persicae; settings: Myzus persicae, foliar; Green Peach Aphid; compounds a-r
Southern Armyworm [12] = assay: Biological Method D: Foliar Insecticidal Activity Test, Southern Armyworm test; assay type: in vivo, Spodoptera eridania; settings: Spodoptera eridania, foliar, Southern Armyworm, compounds a-r
[13] = foliar, 48 hrs, compounds a-r, read-out: LC 50 BB 48 hrs.
[14] = foliar, 96 hrs, compounds a-r, read-out: LC 50 BB 96 hrs.

| Compound | LC50 (Two-Spotted Spider Mite) [µg/mL] | LC50 GPA (Green Peach Aphid [2]) | LC50 AW 48 hrs (Southern Armyworm [3]) | LC50 AW 96 hrs (Southern Armyworm [3]) | LC50 BW 48 hrs (Boll Weevil [4]) | LC50 BW 96 hrs (Boll Weevil [4]) | LC50 (Mexican Bean Beetle; [13]) [µg/mL] | LC50 (Mexican Bean Beetle; [14]) [µg/mL] | other results |
| --- | --- | --- | --- | --- | --- | --- | --- | --- | --- |
| CCOP(=O)(NN(C)P(=S)(OC)OC)SC(C)CC (centres unmarked) [l, N-(O,O-dimethylthiophosphoryl) N'-(O-ethyl S-secbutyl chloro phosphoryl) N-methyl hydrazine] | 660 (≈ 1880 µM) | I | I | I | I | – | – | – | LC50 BW 96 hrs (Boll Weevil [1]): 740 ppm |
| CCOP(=S)(NN(C)P(=S)(OC)OC)OCC(C)(C)C (centres unmarked) [r] | – | I | I | I | – | – | – | – | – |
| CCOP(=S)(OCC(C)(C)C)N(C)NP(=S)(OC)OC (centres unmarked) [i, N-(O,O-dimethylthiophosphoryl) N′-(O-ethyl O-neopentylthiophosphoryl) N′-methyl hydrazine] | 150 (≈ 412 µM) | I | I | I | I | I | – | – | – |
| CCOP(=S)(NN(C)P(=S)(OCC)OC(C)C)OCC (centres unmarked) [q] | – | I | I | I | – | I | 300 (≈ 823 µM) | 72 (≈ 198 µM) | – |
| CCCOP(=S)(NN(C)P(=S)(OCC)OCC)OCCC [d] | 150 (≈ 396 µM) | I | I | I | I | I | 150 (≈ 396 µM) | 150 (≈ 396 µM) | – |
| CCOP(=S)(NNP(=S)(OCC)OC(C)C)OCC(C)(C)C (centres unmarked) [Compound 46, N-(O-ethyl O-isopropylthiophosphoryl) N′-(O-ethyl O-neopentylthiophosphoryl) hydrazine] | – | – | – | – | – | – | – | – | LC50 TSM (Two-Spotted Spider Mite; Method D foliar test): I; LC50 (Mexican Bean Beetle; Method D foliar test, 96 hrs, read-out: LC50 BB 96 hrs): 45 µg/mL (≈ 115 µM); LC50 BB 48 hrs. (Mexican Bean Beetle; Method D foliar test, 48 hrs): I; LC95 ([5]; 23 days at 30 degrees Centigrade): < 0.22 kg/ha; LC95 ([5]; 23 days, value in brackets): < 0.2 pounds per acre; LC50 GPA (Green Peach Aphid [6]): I; LC50 AW 48 hrs (Southern Armyworm [7]; 48 hrs): I; LC50 AW 96 hrs (Southern Armyworm [7]; 96 hrs): I; LC50 BW 48 hrs (Boll Weevil [8]; 48 hrs): I; LC50 BW 96 hrs (Boll Weevil [8]; 96 hrs): I; primary nonagressive Method A crw LC90 [9]: 0.08 ppm; secondary aggressive Method C crw LC50 ([10]; rated 17 days post-infestation): 0.34 kg/ha; secondary aggressive Method C crw LC50 ([10]; value in brackets): 0.30 lb/acre |
| CCOP(=S)(OCC)N(C)NP1(=S)OCC(C)(C)CO1 [n] | – | I | I | I | I | I | 150 (≈ 414 µM) | 150 (≈ 414 µM) | – |
| CCOP(=S)(NN(C(=O)OC)P(=S)(OCC)OCC)OCC [o] | 150 (≈ 380 µM) | I | I | I | I | – | 52 (≈ 132 µM) | 45 (≈ 114 µM) | LC50 BW 96 hrs (Boll Weevil [1]): 740 ppm |
| COP(=S)(NN(C)P(=S)(OC)OC)OC [h] | – | I | I | I | I | I | – | – | – |
| CCOP(=O)(SC(C)CC)N(C)N(C)P(=S)(OC)OC (centres unmarked) [m] | 150 (≈ 412 µM) | I | I | I | – | – | 600 (≈ 1650 µM) | 38 (≈ 104 µM) | LC50 BW 48 hrs (Boll Weevil [1]; 48 hrs): 740 ppm; LC50 BW 96 hrs (Boll Weevil [1]): 740 ppm |
| CCOP(=S)(NN(C)P(=S)(OCC)OCC)OCC(C)(C)C (centres unmarked) [j] | – | I | I | I | I | I | – | – | – |
| CCOP(=O)(SC(C)CC)N(C)NP(=S)(OCC)OCC(C)(C)C (centres unmarked) [k] | – | – | I | I | I | I | – | 52 (≈ 124 µM) | LC50 (Green Peach Aphid [11]): 300 µg/mL (≈ 713 µM) |
| CCOP(=S)(NN(C)P(=S)(OCC)OCC)OCC [a, N,N′-bis-(O,O-diethylthiophosphoryl) N-methyl hydrazine] | 150 (≈ 428 µM) | – | – | – | I | I | 500 (≈ 1430 µM) | 420 (≈ 1200 µM) | LC50 (Green Peach Aphid [11]): 150 µg/mL (≈ 428 µM); LC50 (Southern Armyworm [12]; 48 hrs, read-out: LC 50 AW 48 hrs.): 150 µg/mL (≈ 428 µM); LC50 (Southern Armyworm [12]; 96 hrs, read-out: LC 50 AW 96 hrs.): 150 µg/mL (≈ 428 µM) |
